Experiments:
Experiment in all cases: KINOMEscan competition binding
Settings in all cases: compound 10.0 µM
AURKA (human) = AURKA (human) (UniProt O14965)
BMPR1A (human) = BMPR1A (human) (UniProt P36894)
CAMKK2 (human) = CAMKK2 (human) (UniProt Q96RR4)
CDK5 (human) = CDK5 (human) (UniProt Q00535)
CDKL2 (human) = CDKL2 (human) (UniProt Q92772)
CHEK2 (human) = CHEK2 (human) (UniProt O96017)
CLK4 (human) = CLK4 (human) (UniProt Q9HAZ1)
CSK (human) = CSK (human) (UniProt P41240)
CSNK1G2 (human) = CSNK1G2 (human) (UniProt P78368)
EPHB3 (human) = EPHB3 (human) (UniProt P54753)
FGFR2 (human) = FGFR2 (human) (UniProt P21802)
FGFR4 (human) = FGFR4 (human) (UniProt P22455)
INSR (human) = INSR (human) (UniProt P06213)
IRAK3 (human) = IRAK3 (human) (UniProt Q9Y616)
KDR (human) = KDR (human) (UniProt P35968)
[1] = test system: KIT (human), P10721 [V559D]
MAP2K4 (human) = MAP2K4 (human) (UniProt P45985)
MAP3K12 (human) = MAP3K12 (human) (UniProt Q12852)
Chain of MAP3K12 (human) (Q12852 whole entry, looked up): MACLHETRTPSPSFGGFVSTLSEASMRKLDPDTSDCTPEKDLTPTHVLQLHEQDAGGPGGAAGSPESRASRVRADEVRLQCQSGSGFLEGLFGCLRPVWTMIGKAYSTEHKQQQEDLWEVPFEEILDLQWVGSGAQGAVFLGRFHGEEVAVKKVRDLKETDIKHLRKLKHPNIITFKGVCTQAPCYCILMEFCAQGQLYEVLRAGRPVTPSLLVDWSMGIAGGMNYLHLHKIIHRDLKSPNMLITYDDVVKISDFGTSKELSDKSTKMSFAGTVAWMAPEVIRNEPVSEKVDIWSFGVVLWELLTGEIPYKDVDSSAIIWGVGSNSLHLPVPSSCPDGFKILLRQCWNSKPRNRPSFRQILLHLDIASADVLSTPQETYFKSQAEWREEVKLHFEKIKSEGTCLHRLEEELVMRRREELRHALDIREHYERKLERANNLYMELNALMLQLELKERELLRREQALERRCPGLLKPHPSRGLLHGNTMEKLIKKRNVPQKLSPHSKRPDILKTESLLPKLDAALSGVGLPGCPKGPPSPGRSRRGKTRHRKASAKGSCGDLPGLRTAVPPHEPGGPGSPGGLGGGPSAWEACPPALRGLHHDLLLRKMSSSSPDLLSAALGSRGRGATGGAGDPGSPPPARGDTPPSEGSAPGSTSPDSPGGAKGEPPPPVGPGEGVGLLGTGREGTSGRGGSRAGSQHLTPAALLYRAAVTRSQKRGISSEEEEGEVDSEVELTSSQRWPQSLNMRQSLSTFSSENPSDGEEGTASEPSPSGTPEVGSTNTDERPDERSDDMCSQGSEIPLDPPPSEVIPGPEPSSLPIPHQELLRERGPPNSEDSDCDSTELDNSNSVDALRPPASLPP

MAP3K9 (human) = MAP3K9 (human) (UniProt P80192)
MAP4K3 (human) = MAP4K3 (human) (UniProt Q8IVH8)
MAP4K4 (human) = MAP4K4 (human) (UniProt O95819)
MAPK6 (human) = MAPK6 (human) (UniProt Q16659)
MYLK4 (human) = MYLK4 (human) (UniProt Q86YV6)
MYO3B (human) = MYO3B (human) (UniProt Q8WXR4)
NTRK3 (human) = NTRK3 (human) (UniProt Q16288)
PAK1 (human) = PAK1 (human) (UniProt Q13153)
Chain of PAK1 (human) (Q13153 whole entry, looked up): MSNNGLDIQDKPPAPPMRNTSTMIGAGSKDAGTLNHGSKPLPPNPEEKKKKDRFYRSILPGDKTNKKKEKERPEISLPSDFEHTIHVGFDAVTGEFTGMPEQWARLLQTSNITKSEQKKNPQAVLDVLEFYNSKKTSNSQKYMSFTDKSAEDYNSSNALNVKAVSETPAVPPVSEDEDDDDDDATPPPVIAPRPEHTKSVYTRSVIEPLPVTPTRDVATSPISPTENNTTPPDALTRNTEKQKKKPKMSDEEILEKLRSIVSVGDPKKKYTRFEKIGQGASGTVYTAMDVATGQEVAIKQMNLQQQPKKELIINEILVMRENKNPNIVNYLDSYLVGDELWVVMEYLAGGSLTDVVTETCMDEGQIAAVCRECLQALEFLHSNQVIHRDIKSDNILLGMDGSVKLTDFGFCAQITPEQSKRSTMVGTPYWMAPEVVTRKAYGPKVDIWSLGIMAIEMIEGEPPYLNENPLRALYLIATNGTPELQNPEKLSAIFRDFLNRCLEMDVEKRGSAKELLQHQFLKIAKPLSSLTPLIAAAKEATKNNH

PAK2 (human) = PAK2 (human) (UniProt Q13177)
PDGFRA (human) = PDGFRA (human) (UniProt P16234)
PIP5K1A (human) = PIP5K1A (human) (UniProt Q99755)
Chain of PIP5K1A (human) (Q99755 whole entry, looked up): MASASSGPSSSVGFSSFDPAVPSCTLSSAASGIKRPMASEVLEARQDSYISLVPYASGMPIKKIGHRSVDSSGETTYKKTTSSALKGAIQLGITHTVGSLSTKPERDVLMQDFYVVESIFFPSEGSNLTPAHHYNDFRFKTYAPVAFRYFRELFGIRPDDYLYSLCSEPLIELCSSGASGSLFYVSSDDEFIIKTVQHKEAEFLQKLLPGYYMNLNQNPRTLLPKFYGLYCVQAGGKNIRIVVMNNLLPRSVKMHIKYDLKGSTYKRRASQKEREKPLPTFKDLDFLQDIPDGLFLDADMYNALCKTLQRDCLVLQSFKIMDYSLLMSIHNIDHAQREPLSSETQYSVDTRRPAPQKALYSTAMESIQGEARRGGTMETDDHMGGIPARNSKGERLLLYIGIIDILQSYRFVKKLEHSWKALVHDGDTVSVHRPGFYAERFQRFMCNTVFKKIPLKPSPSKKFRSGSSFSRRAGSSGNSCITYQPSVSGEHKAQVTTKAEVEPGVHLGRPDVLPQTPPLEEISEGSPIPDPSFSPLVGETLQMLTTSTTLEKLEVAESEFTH

PRKCQ (human) = PRKCQ (human) (UniProt Q04759)
RIPK4 (human) = RIPK4 (human) (UniProt P57078)
ROCK2 (human) = ROCK2 (human) (UniProt O75116)
RPS6KA2 KD2 (human) = RPS6KA2 KD2 (human) (UniProt Q15349)
RPS6KA3 KD1 (human) = RPS6KA3 KD1 (human) (UniProt P51812)
RPS6KA4 KD2 (human) = RPS6KA4 KD2 (human) (UniProt O75676)
RPS6KA5 KD2 (human) = RPS6KA5 KD2 (human) (UniProt O75582)
Chain of RPS6KA5 KD2 (human) (O75582 whole entry, looked up): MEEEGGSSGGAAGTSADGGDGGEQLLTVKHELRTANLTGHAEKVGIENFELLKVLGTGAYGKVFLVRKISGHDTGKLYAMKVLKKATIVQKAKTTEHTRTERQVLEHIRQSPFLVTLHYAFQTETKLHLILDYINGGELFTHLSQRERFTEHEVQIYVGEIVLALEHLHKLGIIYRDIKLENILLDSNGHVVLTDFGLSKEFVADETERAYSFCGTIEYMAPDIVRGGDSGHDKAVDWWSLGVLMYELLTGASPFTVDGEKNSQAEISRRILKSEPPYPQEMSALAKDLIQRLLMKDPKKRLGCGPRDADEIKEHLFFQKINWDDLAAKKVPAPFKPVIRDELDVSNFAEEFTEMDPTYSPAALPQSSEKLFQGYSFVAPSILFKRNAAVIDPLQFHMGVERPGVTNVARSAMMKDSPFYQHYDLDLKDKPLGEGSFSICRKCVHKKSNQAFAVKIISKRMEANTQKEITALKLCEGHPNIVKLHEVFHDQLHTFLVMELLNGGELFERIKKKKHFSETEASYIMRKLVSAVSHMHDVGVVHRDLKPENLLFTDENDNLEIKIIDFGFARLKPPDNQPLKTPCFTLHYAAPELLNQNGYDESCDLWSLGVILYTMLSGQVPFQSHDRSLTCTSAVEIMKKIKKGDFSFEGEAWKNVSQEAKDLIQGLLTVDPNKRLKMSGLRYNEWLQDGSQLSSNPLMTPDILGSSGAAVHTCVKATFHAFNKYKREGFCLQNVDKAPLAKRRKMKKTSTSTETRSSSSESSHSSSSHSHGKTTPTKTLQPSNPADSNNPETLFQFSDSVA

STK10 (human) = STK10 (human) (UniProt O94804)
STK32B (human) = STK32B (human) (UniProt Q9NY57)
TESK1 (human) = TESK1 (human) (UniProt Q15569)
Chain of TESK1 (human) (Q15569 whole entry, looked up): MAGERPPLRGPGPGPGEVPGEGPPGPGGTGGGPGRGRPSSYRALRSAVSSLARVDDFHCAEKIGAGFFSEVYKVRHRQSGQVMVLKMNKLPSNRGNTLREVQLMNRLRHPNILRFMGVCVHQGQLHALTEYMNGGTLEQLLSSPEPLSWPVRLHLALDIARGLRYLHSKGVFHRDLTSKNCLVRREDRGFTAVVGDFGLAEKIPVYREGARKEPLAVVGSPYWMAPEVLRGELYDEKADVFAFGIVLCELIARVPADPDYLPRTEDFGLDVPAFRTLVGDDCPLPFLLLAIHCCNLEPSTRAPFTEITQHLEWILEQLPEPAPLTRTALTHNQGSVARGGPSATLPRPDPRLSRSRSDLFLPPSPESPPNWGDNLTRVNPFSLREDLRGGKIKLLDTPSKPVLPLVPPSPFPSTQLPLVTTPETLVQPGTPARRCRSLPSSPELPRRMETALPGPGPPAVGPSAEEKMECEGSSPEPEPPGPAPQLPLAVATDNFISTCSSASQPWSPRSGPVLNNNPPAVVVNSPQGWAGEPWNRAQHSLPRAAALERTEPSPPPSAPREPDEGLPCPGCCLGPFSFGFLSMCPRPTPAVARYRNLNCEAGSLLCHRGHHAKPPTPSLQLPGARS

[2] = molecular target: TYK2 JH2 pseudokinase (human) (UniProt P29597)

Chain of CHEK2 (human) (O96017 whole entry, looked up): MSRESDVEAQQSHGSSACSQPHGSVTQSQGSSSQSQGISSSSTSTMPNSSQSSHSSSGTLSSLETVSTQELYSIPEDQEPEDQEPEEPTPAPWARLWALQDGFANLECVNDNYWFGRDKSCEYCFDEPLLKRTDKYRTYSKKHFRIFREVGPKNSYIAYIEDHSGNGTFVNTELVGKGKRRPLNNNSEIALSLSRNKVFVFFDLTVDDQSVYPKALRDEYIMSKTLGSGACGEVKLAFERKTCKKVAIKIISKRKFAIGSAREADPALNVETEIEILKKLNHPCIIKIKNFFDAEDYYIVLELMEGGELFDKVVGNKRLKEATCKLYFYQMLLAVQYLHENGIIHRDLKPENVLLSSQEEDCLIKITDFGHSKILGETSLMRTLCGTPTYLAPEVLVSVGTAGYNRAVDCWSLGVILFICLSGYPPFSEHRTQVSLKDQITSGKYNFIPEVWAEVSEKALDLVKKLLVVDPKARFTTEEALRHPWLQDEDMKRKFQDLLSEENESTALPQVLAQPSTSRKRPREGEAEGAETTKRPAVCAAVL
Chain of CLK4 (human) (Q9HAZ1 whole entry, looked up): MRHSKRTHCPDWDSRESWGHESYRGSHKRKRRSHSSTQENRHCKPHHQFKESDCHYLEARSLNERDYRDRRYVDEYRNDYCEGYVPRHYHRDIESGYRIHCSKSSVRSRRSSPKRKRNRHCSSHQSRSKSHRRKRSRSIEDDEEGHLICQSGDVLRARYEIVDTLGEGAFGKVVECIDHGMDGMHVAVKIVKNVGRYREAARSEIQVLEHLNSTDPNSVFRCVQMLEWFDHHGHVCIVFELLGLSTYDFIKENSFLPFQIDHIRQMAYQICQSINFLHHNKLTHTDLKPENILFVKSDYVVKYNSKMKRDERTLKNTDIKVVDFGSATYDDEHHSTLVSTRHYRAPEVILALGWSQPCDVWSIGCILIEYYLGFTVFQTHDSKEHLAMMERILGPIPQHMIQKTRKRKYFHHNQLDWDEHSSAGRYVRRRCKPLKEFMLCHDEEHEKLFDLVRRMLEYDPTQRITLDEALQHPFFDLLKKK
Chain of BMPR1A (human) (P36894 whole entry, looked up): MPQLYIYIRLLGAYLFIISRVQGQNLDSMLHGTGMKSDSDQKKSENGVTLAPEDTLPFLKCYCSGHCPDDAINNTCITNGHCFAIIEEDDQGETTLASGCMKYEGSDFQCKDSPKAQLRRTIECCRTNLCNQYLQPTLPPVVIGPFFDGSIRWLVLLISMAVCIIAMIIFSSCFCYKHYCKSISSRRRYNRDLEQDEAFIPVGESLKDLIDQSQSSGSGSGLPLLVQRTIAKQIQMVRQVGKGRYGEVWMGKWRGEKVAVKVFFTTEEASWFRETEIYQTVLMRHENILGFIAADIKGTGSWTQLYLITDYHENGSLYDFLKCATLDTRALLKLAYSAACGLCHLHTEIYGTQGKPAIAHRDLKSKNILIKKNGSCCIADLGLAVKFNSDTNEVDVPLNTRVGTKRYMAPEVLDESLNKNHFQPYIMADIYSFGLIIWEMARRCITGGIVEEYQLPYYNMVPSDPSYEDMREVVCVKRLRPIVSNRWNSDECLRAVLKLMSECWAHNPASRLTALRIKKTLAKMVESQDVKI

Structure (SMILES)	kinase still bound, per cent of control (AURKA (human))	kinase still bound, per cent of control (BMPR1A (human))	kinase still bound, per cent of control (CAMKK2 (human))	kinase still bound, per cent of control (CDK5 (human))	kinase still bound, per cent of control (CDKL2 (human))	kinase still bound, per cent of control (CHEK2 (human))	kinase still bound, per cent of control (CLK4 (human))	kinase still bound, per cent of control (CSK (human))	kinase still bound, per cent of control (CSNK1G2 (human))	kinase still bound, per cent of control (EPHB3 (human))	kinase still bound, per cent of control (FGFR2 (human))	kinase still bound, per cent of control (FGFR4 (human))	kinase still bound, per cent of control (INSR (human))	kinase still bound, per cent of control (IRAK3 (human))	kinase still bound, per cent of control (KDR (human))	kinase still bound, per cent of control [1]	kinase still bound, per cent of control (MAP2K4 (human))	kinase still bound, per cent of control (MAP3K12 (human))	kinase still bound, per cent of control (MAP3K9 (human))	kinase still bound, per cent of control (MAP4K3 (human))	also measured
C=CC(=O)Nc1cc(NC(=O)c2ccc(C)c(NC(=O)c3ccno3)c2)cc(C(F)(F)F)c1	95%	100%	69%	90%	100%	96%	100%	71%	100%	99%	99%	100%	92%	100%	87%	1.4%	100%	100%	98%	87%	kinase still bound, per cent of control (MAP4K4 (human)): 88%; kinase still bound, per cent of control (MAPK6 (human)): 100%; kinase still bound, per cent of control (MYLK4 (human)): 97%; kinase still bound, per cent of control (MYO3B (human)): 100%; kinase still bound, per cent of control (NTRK3 (human)): 100%; kinase still bound, per cent of control (PAK1 (human)): 79%; kinase still bound, per cent of control (PAK2 (human)): 71%; kinase still bound, per cent of control (PDGFRA (human)): 41%; kinase still bound, per cent of control (PIP5K1A (human)): 100%; kinase still bound, per cent of control (PRKCQ (human)): 100%; kinase still bound, per cent of control (RIPK4 (human)): 86%; kinase still bound, per cent of control (ROCK2 (human)): 85%; kinase still bound, per cent of control (RPS6KA2 KD2 (human)): 100%; kinase still bound, per cent of control (RPS6KA3 KD1 (human)): 96%; kinase still bound, per cent of control (RPS6KA4 KD2 (human)): 94%; kinase still bound, per cent of control (RPS6KA5 KD2 (human)): 90%; kinase still bound, per cent of control (STK10 (human)): 100%; kinase still bound, per cent of control (STK32B (human)): 100%; kinase still bound, per cent of control (TESK1 (human)): 100%; kinase still bound, per cent of control [2]: 100%
CN(C)C/C=C/C(=O)Nc1cccc(Nc2ncc3c(n2)N(C)c2ccccc2C(=O)N3C)c1	0.65%	0.65%	8.1%	100%	92%	94%	100%	82%	69%	88%	13%	22%	100%	44%	90%	54%	100%	38%	89%	28%	kinase still bound, per cent of control (MAP4K4 (human)): 50%; kinase still bound, per cent of control (MAPK6 (human)): 46%; kinase still bound, per cent of control (MYLK4 (human)): 86%; kinase still bound, per cent of control (MYO3B (human)): 100%; kinase still bound, per cent of control (NTRK3 (human)): 16%; kinase still bound, per cent of control (PAK1 (human)): 91%; kinase still bound, per cent of control (PAK2 (human)): 67%; kinase still bound, per cent of control (PDGFRA (human)): 100%; kinase still bound, per cent of control (PIP5K1A (human)): 9.9%; kinase still bound, per cent of control (PRKCQ (human)): 83%; kinase still bound, per cent of control (RIPK4 (human)): 1%; kinase still bound, per cent of control (ROCK2 (human)): 58%; kinase still bound, per cent of control (RPS6KA2 KD2 (human)): 21%; kinase still bound, per cent of control (RPS6KA3 KD1 (human)): 29%; kinase still bound, per cent of control (RPS6KA4 KD2 (human)): 70%; kinase still bound, per cent of control (RPS6KA5 KD2 (human)): 80%; kinase still bound, per cent of control (STK10 (human)): 30%; kinase still bound, per cent of control (STK32B (human)): 100%; kinase still bound, per cent of control (TESK1 (human)): 100%; kinase still bound, per cent of control [2]: 18%

Source: the kinase profiling compilation of Christmann-Franck et al. (2016)
